From PMC9606187, “Dual HDAC/BRD4 Inhibitors Relieves Neuropathic Pain by Attenuating Inflammatory Response in Microglia After Spared Nerve Injury” (Neurotherapeutics, 2022)

Key:
[1] = biological target: T1, Recombinant Human Bromodomain containing protein 4, bromodomain 1 (BRD4-BD1) (Homo sapiens, UniProt O60885); test: AlphaScreen bromodomain binding assay (Reaction Biology), BRD4-1
T1 construct: bromodomain 1 (aa 44–170); purchased Reaction Biology (RBC) RD-11–140; host or cells: E. coli
Method: (§1) The reader assay is a binding assay using AlphaScreen technology […] assay and was performed by Reaction Biology (www.reactionbiology.com). The biotinylated peptide binding to the reader domain of His-tagged protein is monitored by the singlet oxygen transfer from the Streptavidin-coated donor beads to the AlphaScreen Ni-chelate acceptor beads.
(§2) Reaction buffer: 50 mM Hepes, pH7.5, 100 mM NaCl, 0.05% CHAPS, 0.1% BSA, and 1% DMSO (the final DMSO concentration may differ depending on compound stock and test concentrations).
(§3) Bromodomain: BRD4-1: RBC Cat# RD-11–140: Recombinant Human Bromodomain containing protein 4, bromodomain 1 (aa 44–170; Genbank Accession # NM_058243), expressed in E. coli with N-terminal His-tag. MW = 17.8 kDa; BRD4-2: RBC Cat# RD-11–141: Recombinant Human Bromodomain containing protein 4, bromodomain 2 (aa 349–460;Genbank Accession # NM_058243), expressed in E. coli with N-terminal His-tag. MW = 15.7 kDa. Ligand (C-term-Biotin): Histone H4 peptide (1–21) K5/8/12/16Ac-Biotin. Detection beads: PerkinElmer: Donor beads: Streptavidin-coated donor beads; Acceptor beads: AlphaScreen Ni acceptor beads.
Reaction procedure: • Deliver 2.5X BRD in wells of reaction plate except No BRD control wells. Add buffer instead. • Deliver compounds in 100% DMSO into the BRD mixture by Acoustic technology (Echo550; nanoliter range). […]

SNI mice [2] = test: Mechanical allodynia (Dynamic Plantar Aesthesiometer) in SNI mice; format: in vivo
Method: Mice were randomly assigned to each treatment group. […] Maria Novella Romanelli, iBET762 (molibresib; (4S)-6-(4-Chlorophenyl)-N-ethyl-8-methoxy-1-methyl-4H-[1,2,4]triazolo[4,3,a][1,4] benzodiazepine-4-acetamide, and SAHA (vorinostat; suberoylanilide hydroxamic acid) (Sigma-Aldrich, Italy) were administered 15 min before the tests. Drugs were dissolved in 5% DMSO. Drug concentrations were prepared in such a way that the necessary dose could be administered in a volume of 10 µl per mouse by intranasal (i.n.) administration. The experimental protocol to test the effect of treatments on behavioral and in vitro tests included 3 control groups: untreated, vehicle (5% DMSO), and saline.
(§5) For i.n. administration, mice were slightly anesthetized by 2% isoflurane inhalation and placed in a supine position [30]. A 5 μl aliquot of solution (treatments or vehicle) was slowly dropped alternatively to each nostril with a micropipette tip.
Behavioral testing was performed before surgery to establish a baseline for comparison with post-surgical values. Mono-neuropathy was induced by spared nerve injury and this model of pain in mice has been in use for several years [31]. The SNI procedure was performed as previously described [31].
(§6) Animals were habituated to the testing environment daily for at least 2 days before baseline testing. To evaluate onset and progression of pain hypersensitivity, neuropathic mice were monitored by measuring nociceptive responses every 30 min for 3 h before surgery or 3, 7, 10, and 14 days after nerve surgery. Experiments were performed on post-surgery day 7 and 14 when the pain hypersensitivity was well established. Each mouse served as its own control, the responses being measured both before and after surgery. All testing was performed with a blind procedure.
Mechanical allodynia was measured by using Dynamic Plantar Aesthesiometer (Ugo Basile, Bologna, Italy), as described [32]. Nociceptive response for mechanical sensitivity was expressed as mechanical paw withdrawal threshold (PWT) in grams. PWT was quantified by an observer blinded to the treatment.

[3] = test system: p65 subunit of NF-kB (phosphorylated); test: Western blot of lumbar spinal cord, p-NF-kB p65; format: in vivo, mice; settings: SNI ipsilateral side, day 7 and 14
Method: (§4) The lumbar spinal cord was removed 7 and 14 days after surgery and 90 min after the intranasal administration of SUM52, corresponding to the peack of the effect. Samples (n = 4 for groups) were homogenized in a homogenization buffer and processed as previously described. Protein samples (40 µg of protein/sample) were separated on 10% SDS-PAGE and transferred onto nitrocellulose membranes (120 min at 100 V) using standard procedures. Membranes were blocked in PBST (PBS containing 0.1% Tween) containing 5% nonfat dry milk for 120 min. […] Blots were then extensively washed and developed using enhanced chemiluminescence detection system (Pierce, Milan, Italy) and signal intensity (pixels/mm^2) quantified (ImageJ, NIH). […] For each sample, the signal intensity was normalized to that of total protein stained by Ponceau S and the acquired images were quantified using Image Lab software. […]

[4] = biological target: T2, Recombinant Human Bromodomain containing protein 4, bromodomain 2 (BRD4-BD2) (Homo sapiens, UniProt O60885); test: AlphaScreen bromodomain binding assay (Reaction Biology), BRD4-2
T2 construct: purchased Reaction Biology (RBC) RD-11–141; host or cells: E. coli
Method: as §1, §2, §3
Reaction procedure: • Deliver 2.5X BRD in wells of reaction plate except No BRD control wells. Add buffer instead. • Deliver compounds in 100% DMSO into the BRD mixture by Acoustic technology (Echo550; nanoliter range). Spin down and pre-incubation for 30 min. • Deliver 5X Ligand. Spin and shake. • Incubate for 30 min at room temperature with gentle shaking. • Deliver 5X donor beads. Spin and shake. • Deliver 5X acceptor beads. Spin and shake. Then gentle shaking in the dark for 60 min. • Alpha measurement (Ex/Em = 680/520–620 nm) in Enspire.

SNI mice [5] = test: Hargreaves' plantar test, thermal allodynia in SNI mice; format: in vivo
Method: Mice were randomly assigned to each treatment group.
as §5
Behavioral testing was performed before surgery to establish a baseline for comparison with post-surgical values.
as §6
Thermal nociceptive threshold was measured using Hargreaves’ device, as described [33]. Nociceptive response for thermal sensitivity was expressed as thermal paw withdrawal latency in seconds. All determinations were averaged for each animal.

iNOS (NOS2) = test: Western blot of lumbar spinal cord, iNOS; format: in vivo, mice; settings: SNI ipsilateral side, day 7 and 14
Method: as §4

[6] = contralateral (uninjured) side of SNI mice
[7] = time-course comparison, combination i-BET762 10 µg, SAHA 3 µg

In the case of Cc1nnc2n1-c1ccccc1C(c1ccccc1)=N[C@H]2CC(=O)NCCCCCCC(=O)NO [SUM52, (S)-N-hydroxy-7-(2-(1-methyl-6-phenyl-4H-benzo[f][1,2,4]triazolo[4,3-a][1,4]diazepin-4-yl)acetamido)heptanamide], the IC50 [1] is reported as 758 nM, the “mechanical antiallodynic activity, ipsilateral side” value (SNI mice [2]; 10–100 µM i.n.) is reported as “attenuated SNI-induced mechanical allodynia” and the “duration of activity in attenuating mechanical allodynia compared with SUM35” value (SNI mice [2]; SUM52 50 µM vs SUM35 100 µM) is reported as “more prolonged activity”. The “efficacy in attenuating mechanical allodynia compared with SUM35” value (SNI mice [2]; SUM52 50 µM vs SUM35 100 µM, day 7 and 14 post-surgery) was “higher efficacy”, the “mechanical analgesic effect in the contralateral side” value (SNI mice [2]; [6]) was “absence” and the “mechanical antiallodynic efficacy compared with SAHA + iBET762 combination” value (SNI mice [2]; [7]) was “comparable efficacy”. For the same compound, the “phosphorylation of the p65 subunit of NF-kB” value [3] was “robustly reduced by SUM52 up to baseline values”, the IC50 [4] was 10.5 nM and the “preference between BRD4-BD1 and BRD4-BD2 domains” value ([4]; BRD4-BD1 vs BRD4-BD2) was “preferential interaction for BRD4-BD2”. The “thermal antiallodynic activity, ipsilateral side” value (“thermal antiallodynic activity” for short) (SNI mice [5]; 10 µM i.n., 90 min) was “ineffective”, the “thermal antiallodynic activity” value (SNI mice [5]; 50 µM i.n., vs before treatment values) was “attenuated the SNI-induced pain hypersensitivity” and the “thermal antiallodynic activity” value (SNI mice [5]; 75 µM i.n., vs before treatment values) was “attenuated the SNI-induced pain hypersensitivity”. The “thermal antiallodynic activity” value (SNI mice [5]; 100 µM i.n.) was “the effect was significantly reduced”, the “duration of effect on thermal allodynia compared with SUM35” value (SNI mice [5]; SUM52 50 µM vs SUM35 100 µM) was “more prolonged affect” and the “efficacy in attenuating thermal allodynia compared with SUM35” value (SNI mice [5]; SUM52 50 µM vs SUM35 100 µM, normalized to control group, day 7 and 14) was “comparable efficacy”. For the same compound, the “thermal analgesic effect in the contralateral side” value (SNI mice [5]; [6]) was “absence”, the “thermal antiallodynic efficacy compared with SAHA + iBET762 combination” value (SNI mice [5]; [7]) was “comparable efficacy” and the “NOS2 (iNOS) expression” value (iNOS (NOS2)) was “reduced NOS2 overactivation”.
